Here are results for 4 molecules from ChEMBL document CHEMBL1152159, “Possible involvement of radical intermediates in the inhibition of cysteine proteases by allenyl esters and amides” (Bioorg Med Chem Lett, 2008).

A short description of data set [1]: Inhibition of urease.
For data set [2], the system named is Rattus norvegicus. Put plainly: Inhibition of water-immersion stress-induced ulcer formation in rat at 1 mg/kg. Type of data set: functional.
In data set [3] the test system is Rattus norvegicus. Put plainly: Inhibition of water-immersion stress-induced ulcer formation in rat at 3 mg/kg. Type of data set: functional.
Data set [4] has as its target Cathepsin B (Homo sapiens, UniProt P07858). The data set is described as follows: Inhibition of cathepsin B in oxygen free condition.
In data set [5] the test system is Rattus norvegicus. Put plainly: Inhibition of water-immersion stress-induced ulcer formation in rat at 10 mg/kg. It counts as functional.
Data set [6] concerns Rattus norvegicus. The data set is described as follows: Inhibition of water-immersion stress-induced ulcer formation in rat at 30 mg/kg. The settings on record: read-out: INH.
Data set [7] in a line: Dissociation constant, pKa of the compound. It counts as physicochemical.

Consider `CCOC(=O)C(C)=C=C(c1ccccc1)c1ccccc1`, for which the IC50 in data set [1] amounted to 1.1 µM; in data set [4], 232 µM. The molecule also registered an inhibition in vivo at 1 mg/kg in data set [2] of 40%. The same molecule returned an inhibition in vivo at 3 mg/kg in data set [3] of 52%. Moreover, the inhibition in vivo at 10 mg/kg in data set [5] was determined as 87%.

Consider `CN/C(=N\CCSCc1nc[nH]c1C)NC#N` [CIMETIDINE], for which, in data set [6], the inhibition in vivo at 30 mg/kg stood at 74%.

As for `NC(N)=Nc1nc(CSCC/C(N)=N/S(N)(=O)=O)cs1` [FAMOTIDINE], the inhibition in vivo at 3 mg/kg in data set [3] turned out to be 59%.

`N[C@@H](CCC(=O)N[C@@H](CS)C(=O)NCC(=O)O)C(=O)O` [GLUTATHIONE] had a pKa in data set [7] of 8.7.

What is called IC50 is the concentration at which inhibition is half-maximal. Lower therefore signals greater potency. The term pKa denotes the negative logarithm of the acid dissociation constant. Low readings indicate a group that gives up its proton readily, high ones a group that holds its proton tightly.
